Laboratory results from patent US9788542B2, “Safened herbicidal compositions including 4-amino-3-chloro-5-fluoro-6-(4-chloro-2-fluoro-3-methoxyphenyl)pyridine-2-carbox) acid or a derivative thereof for use in corn (maize)” (Dow AgroSciences LLC, priority 2013, dated 2017).
Several values for one entry are separate records, joined by “and”; a condition that tells them apart may be missing. Equal entries are not always repeated. Where two headings read alike, the source gives them in different places.

Key:
Assay type in all cases: in vivo
[1] = tested on: HELAN = Helianthus annuus L.; test: Postemergence herbicidal activity, greenhouse, visual injury; details: for pest or weed control at 5 g/ha / pest or weed control at 40 g/ha: Helianthus annuus, post-emergence, 480 h, read-out: HELAN Obs (observed visual injury)
Description: (§1) When required to ensure good germination and healthy plants, a fungicide treatment and/or other chemical or physical treatment was applied. The plants were grown for 7-36 days in a greenhouse with an approximate 14 hour photoperiod which was maintained at about 18° C. during the day and 17° C. during the night. Nutrients and water were added on a regular basis and supplemental lighting was provided with overhead metal halide 1000-Watt lamps as necessary. The plants were employed for testing when they reached the second or third true leaf stage. Treatments consisted of ester (benzyl) compound of formula (I) (Compound A benzyl ester) and various safeners alone and in combination. Compound of formula (I) and safener components were applied on active ingredient basis. For treatments comprised of formulated compounds, measured amounts of compound of formula (I) were placed individually in 25 mL glass vials and diluted in a volume of 1.25% volume per volume (v/v) Agri-dex crop oil concentrate to obtain stock solutions. […] Stock solutions of the formulated safeners were prepared following the same procedure. Application solutions were prepared by mixing the required amount of each stock solution and addition of an appropriate volume of an aqueous mixture of 1.25% v/v of Agri-dex crop oil concentrate to the appropriate final concentrations of application solutions. […] Application solutions were prepared by adding an appropriate amount of each stock solution and diluted to the appropriate final concentrations with the addition of an appropriate volume of an aqueous mixture of 1.25% (v/v) Agri-dex crop oil concentrate. Application solutions were applied to the plant material with an overhead Mandel track sprayer equipped with […] nozzles calibrated to deliver 187 liters per hectare (L/ha) over an application area of 0.503 square meters (m^2) at a spray height of 18 inches ([…]) above average plant canopy. Control plants were sprayed in the same manner with the solvent blank. The treated plants and control plants were placed in a greenhouse as described above and watered by sub-irrigation to prevent wash-off of the test compounds. […] Colby's equation was used to determine the herbicidal effects expected from the mixtures (Colby, S. R. Calculation of the synergistic and antagonistic response of herbicide combinations. Weeds 1967, 15, 20-22.). The following equation was used to calculate the expected activity of mixtures containing two active ingredients, A and B: […] A=observed efficacy of active ingredient A at the same concentration as used in the mixture; B=observed efficacy of active ingredient B at the same concentration as used in the mixture.

[2] = tested on: ABUTH = Abutilon theophrasti Medik.; test: as above; details: for pest or weed control at 5 g/ha / pest or weed control at 40 g/ha: Abutilon theophrasti, post-emergence, 480 h, read-out: ABUTH Obs (observed visual injury)
Description: as §1

ZEAMX = Zea mays L. = test: Postemergence herbicidal safening in corn (maize), greenhouse, visual injury; details: for ZEAMX Obs (observed visual injury, 0 = no injury, 100 = complete kill): applied alone at 4 g ai/ha
Description: as §1

[3] = applied alone at 5 g ai/ha, postemergence, after 20-22 days
[4] = applied alone at 40 g ai/ha, postemergence, after 20-22 days
[5] = postemergence, after 20-22 days
[6] = applied alone at 6 g ai/ha, postemergence, after 20-22 days
[7] = applied alone at 20 g ai/ha, postemergence, after 20-22 days
[8] = applied alone at 80 g ai/ha, postemergence, after 20-22 days
[9] = applied alone at 160 g ai/ha, postemergence, after 20-22 days

| Structure (SMILES) | pest or weed control at 5 g/ha [1, 3] [%] | pest or weed control at 40 g/ha [1, 4] [%] | pest or weed control at 5 g/ha [2, 3] [%] | pest or weed control at 40 g/ha [2, 4] [%] | ZEAMX Obs (observed visual injury) (ZEAMX = Zea mays L.; [3]) [%] | ZEAMX Obs (observed visual injury) (ZEAMX = Zea mays L.; [4]) | other results |
| --- | --- | --- | --- | --- | --- | --- | --- |
| Cc1ccc(NC(=O)NC(C)(C)c2ccccc2)cc1 [Daimuron, N-(4-methylphenyl)-N′-(1-methyl-1-phenylethyl)-urea] | 0 | 0 | 0 | 0 | – | – | ZEAMX Obs (observed visual injury) (ZEAMX = Zea mays L.; in vivo): 0% |
| CC1COc2ccccc2N1C(=O)C(Cl)Cl (racemic) [Benoxacor, (±)-4-(dichloroacetyl)-3,4-dihydro-3-methyl-2H-1,4-benzoxazine] | 0 | 0 | 0 | 0 | 0 | 0% | – |
| N#C/C(=N/OCC1OCCO1)c1ccccc1 [Oxabetrinil, α-[(1,3-dioxolan-2-yl)methoxyimino]benzeneacetonitrile] | 0 | 0 | 0 | 0 | 0 | 0% | – |
| C=CCN(CC=C)C(=O)C(Cl)Cl [Dichlormid, N,N-diallyl-2,2-dichloroacetamide] | 0 | 0 | 0 | 0 | 0 | 0% | – |
| CCOC(=O)C1=NOC(c2ccccc2)(c2ccccc2)C1 [Isoxadifen-ethyl, ethyl 4,5-dihydro-5,5-diphenyl-3-isoxazole-carboxylate] | – | – | – | – | 0 | 0% | pest or weed control at 5 g/ha [1]: 0%; pest or weed control at 40 g/ha [1]: 0%; pest or weed control at 5 g/ha [2]: 0%; pest or weed control at 40 g/ha [2]: 0%; ZEAMX Obs (observed visual injury, 0 = no injury, 100 = complete kill) (ZEAMX = Zea mays L.; [5]): 0%; ZEAMX Obs (observed visual injury) (ZEAMX = Zea mays L.; [6]): 0%; ZEAMX Obs (observed visual injury) (ZEAMX = Zea mays L.; applied alone at 8 g ai/ha, postemergence, after 20-22 days): 0%; ZEAMX Obs (observed visual injury) (ZEAMX = Zea mays L.; applied alone at 12 g ai/ha, postemergence, after 20-22 days): 0%; ZEAMX Obs (observed visual injury) (ZEAMX = Zea mays L.; [7]): 0%; ZEAMX Obs (observed visual injury) (ZEAMX = Zea mays L.; [8]): 0%; ZEAMX Obs (observed visual injury) (ZEAMX = Zea mays L.; [9]): 3% |
| FC(F)(F)/C(=N/OCC1OCCO1)c1ccc(Cl)cc1 [Fluxofenim, 1-(4-chlorophenyl)-2,2,2-trifluoroethanone O-(1,3-dioxolan-2-ylmethyl)oxime] | 0 | 0 | 0 | 0 | 0 | 0% | – |
| O=C1OC(=O)c2cccc3cccc1c23 [Naphthalic anhydride, naphthalene-1,8-dicarboxylic anhydride] | 0 | 0 | 0 | 0 | 0 | 0% | – |
| CC1(C)CN2C(=O)CCC2(C)N(C(=O)C(Cl)Cl)C1 (racemic) [Dicyclonon] | 0 | 0 | 0 | 0 | 0 | 0% | – |
| NC(=O)NS(=O)(=O)c1ccccc1Cl [Compound 2-CBSU, N-(aminocarbonyl)-2-chlorobenzenesulfonamide] | 0 | 0 | 0 | 0 | 0 | 0% | – |
| COc1c(Cl)ccc(-c2nc(C(=O)OCc3ccccc3)c(Cl)c(N)c2F)c1F [Compound A benzyl ester] | – | – | – | – | – | 45% and 23% | HELAN Obs (observed visual injury) [1, 4]: 94%; ABUTH Obs (observed visual injury) [2, 4]: 95%; ZEAMX Obs (observed visual injury, 0 = no injury, 100 = complete kill) (ZEAMX = Zea mays L.; [5]): 10%; ZEAMX Obs (observed visual injury) (ZEAMX = Zea mays L.; [6]): 16%; ZEAMX Obs (observed visual injury) (ZEAMX = Zea mays L.; [7]): 32% |
| CCCCCC(C)OC(=O)COc1ccc(Cl)c2cccnc12 (stereo not shown) [Cloquintocet-mexyl] | – | – | – | – | – | 0% | ZEAMX Obs (observed visual injury) (ZEAMX = Zea mays L.; [7]): 0%; ZEAMX Obs (observed visual injury) (ZEAMX = Zea mays L.; [8]): 0%; ZEAMX Obs (observed visual injury) (ZEAMX = Zea mays L.; [9]): 0% |
| CC1(C)OC(c2ccco2)CN1C(=O)C(Cl)Cl (racemic) [Furilazole, (±)-3-(dichloroacetyl)-5-(2-furanyl)-2,2-dimethyloxazolidine] | 0 | 0 | 0 | 0 | 0 | 0% | – |
